Reference: the NIST ThermoML archive (doi:10.1021/je500363r)
Numbers after ± are expanded uncertainties.

How the values were obtained:
[1] = Crystal; DTA
[2] = Molar enthalpy of transition or fusion; settings: Crystal; DSC

Compound | Normal melting temperature [1] | Molar enthalpy of transition or fusion [2]
Br.CC(C)c1ccc(NC2=NCCC3(CCCCC3)[Se]2)cc1 | 148.4 ± 0.5 °C | 3.08 ± 0.239 kcal/mol
Br.c1ccc(NC2=NCCC3(CCCCC3)[Se]2)cc1 | 144.8 ± 0.5 °C | 4.3 ± 0.263 kcal/mol
Br.Fc1ccc(NC2=NCCC3(CCCCC3)[Se]2)cc1 | 196.2 ± 0.5 °C | 6 ± 0.263 kcal/mol
